The results in this text go back to ChEMBL document CHEMBL1201862, “PubChem BioAssay data set” (2004).

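In this assay, cells in 96-well plates receive the compound at five concentrations for 48 hours. Endpoints are linearly interpolated between the surrounding concentrations. At the GI50, growth is halved.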 Active and inactive are the calls of the source. Rule as the data show it: active = GI50 up to about 1.1 µM and inactive = higher.

Common to all, as to assay: NCI-60 cell line screen, 48 h
In assay [1] the test system is MDA-N.
The subject of assay [2] is TK-10.
Assay [3] relates to UACC-257.
Assay [4] relates to HCT-15.
Assay [5] concerns SF-295.
In assay [6] the test system is 786-0.
For assay [7], the system named is COLO 205.
Assay [8] concerns NCI-H460.
Assay [9] relates to SN12C.
Assay [10] relates to SK-MEL-28.
Assay [11] concerns A549.
Assay [12] concerns MOLT-4.
The test system of assay [13] is MDA-MB-435.
For assay [14], the system named is BT-549.
For assay [15], the system named is NCI-H23.
Assay [16] deals with KM12.
Assay [17] concerns MCF7.
Assay [18] deals with ACHN.
Assay [19] relates to Malme-3M.
Assay [20] concerns SK-OV-3.

`c1ccc(COc2ccc(C[P+](c3ccccc3)(c3ccccc3)c3ccccc3)cc2)cc1`: the GI50 was 0.221 µM (active) in [1]; 0.251 µM (active) in assay [2]; 0.269 µM (active) in assay [3]; 2.82 µM in [4]; 0.318 µM (active) in [5]; 0.371 µM (active) in assay [6]. The GI50 in assay [7] is 0.129 µM (active); in [8] it was 0.225 µM (active); in assay [9], 0.305 µM (active); in [10], 0.337 µM (active); in [11] it was 0.184 µM (active); in [12], 0.285 µM (active). Besides, the GI50 in assay [13] is 0.225 µM (active); in [14], 0.139 µM (active); in assay [15] it was 0.2 µM (active); in [16], 0.191 µM (active); in assay [17] it was 0.1 µM (active); in [18], 0.676 µM (active). For the same molecule, the GI50 is 0.361 µM (active) in assay [19] and 0.287 µM (active) in [20].

Regarding `C=C(C)C(=O)CC[C@@H](C)[C@H]1[C@@H](OC2OC(CO)C(O)C(O)C2O)C[C@@]2(C)[C@@H]3C[C@H](O)C4C(C)(C)[C@@H](OC5OC(CO)C(O)C(O)C5O)CC[C@@]45C[C@@]35CC[C@]12C` (stereo not given in full), the GI50 was 24.6 µM (inactive) in assay [1]; > 100 µM (inactive) in assay [2]; > 100 µM (inactive) in assay [3]; greater than 100 µM in [4]; 71.6 µM (inactive) in assay [5]; > 100 µM (inactive) in [6]. For the same molecule, the GI50 is 92 µM (inactive) in assay [7]; 45.8 µM (inactive) in [8]; 68.1 µM (inactive) in assay [9]; > 100 µM (inactive) in assay [10]; > 100 µM (inactive) in assay [11]; 62.1 µM (inactive) in assay [12]. Moreover, the GI50 in assay [13] is 68.9 µM (inactive); in assay [14], 36.6 µM (inactive); in [15], 87.3 µM (inactive); in assay [16], > 100 µM (inactive); in assay [17], > 100 µM (inactive); in assay [18] it was > 100 µM (inactive). Further, the GI50 in assay [19] and in [20] was > 100 µM (inactive) throughout.

For the molecule `CCOC(=O)c1cc(-c2ccc(OC)cc2)c([N+](=O)[O-])[nH]1`, the GI50 in assay [1] was > 2.46 µM (inactive); in [2], > 10 µM (inactive); in assay [3], > 10 µM (inactive); in [4], greater than 10 µM; in assay [5], > 10 µM (inactive); in [6], > 10 µM (inactive). Moreover, the GI50 in [7], in assay [8], in assay [9], in assay [10], in [11] and in assay [12] was > 10 µM (inactive) each time. The GI50 in assay [13] is > 5.01 µM (inactive); in [14] it was > 10 µM (inactive); in assay [15] it was > 10 µM (inactive); in assay [16] it was > 10 µM (inactive); in [17], > 10 µM (inactive); in assay [18], > 10 µM (inactive). In addition, the GI50 in assay [19] and in [20] was > 10 µM (inactive) throughout.

Consider `CCOC(=O)c1ccc(Nc2cnc3cc(C(F)(F)F)ccc3n2)cc1`, for which the GI50 is > 100 µM (inactive) in assay [1]; > 100 µM (inactive) in assay [2]; > 100 µM (inactive) in assay [3]; greater than 100 µM in assay [4]; > 100 µM (inactive) in assay [5]; 40.3 µM (inactive) in assay [6]. For the same molecule, the GI50 in assay [7] is > 100 µM (inactive); in assay [8], > 100 µM (inactive); in assay [9], > 100 µM (inactive); in assay [10] it was 85.9 µM (inactive); in [11], > 100 µM (inactive); in [12], > 100 µM (inactive). The GI50 is > 100 µM (inactive) in assay [13]; > 100 µM (inactive) in [14]; > 100 µM (inactive) in [15]; 85.1 µM (inactive) in assay [16]; > 10 µM (inactive) in [17]; > 100 µM (inactive) in assay [18]. Besides, the GI50 in [19] and in assay [20] was > 100 µM (inactive) each time.

In the case of `O=S(=O)(O)c1cc(S(=O)(=O)O)c2c(Nc3ccnc4ccccc34)ccc(S(=O)(=O)O)c2c1`, the GI50 was > 100 µM (inactive) in assay [1]; > 100 µM (inactive) in assay [2]; > 100 µM (inactive) in assay [3]; greater than 100 µM in assay [4]; > 100 µM (inactive) in assay [5]; > 100 µM (inactive) in [6]. Besides, the GI50 in assay [7], in [8], in assay [9], in assay [10], in assay [11] and in [12] was > 100 µM (inactive) throughout. For the same molecule, the GI50 in [13], in assay [14], in assay [15], in [16], in [17] and in assay [18] was > 100 µM (inactive) in each case. Also, the GI50 in assay [19] and in [20] was > 100 µM (inactive) each time.

Take `O=NN(CCCl)C(=O)NCCCl` [CARMUSTINE]: the GI50 in assay [1] is 71.3 µM (inactive); in assay [2], 93.1 µM (inactive); in assay [3], 75.5 µM (inactive); in assay [4], 64.6 µM; in assay [5], 44.5 µM (inactive); in [6], 42.3 µM (inactive). Besides, the GI50 in assay [7] is 72.3 µM (inactive); in [8], 52.5 µM (inactive); in [9] it was 75.9 µM (inactive); in assay [10], 81.5 µM (inactive); in [11], 103 µM (inactive); in [12] it was 33.5 µM (inactive). In addition, the GI50 is 75.5 µM (inactive) in assay [13]; 79.3 µM (inactive) in [14]; 88.1 µM (inactive) in [15]; 88.9 µM (inactive) in assay [16]; 68.9 µM (inactive) in assay [17]; 83 µM (inactive) in assay [18]. For the same molecule, the GI50 in assay [19] was 81.5 µM (inactive); in assay [20], 115 µM (inactive).
